pEC50: −log10 of the molar value. Converted amounts (≈) assume the structure as drawn.
Experiments:
[1] = system: HepDE19 cells; test: Cytotoxicity in HepDE19 cells (CCK-8) and selectivity index; assay type: cell-based; settings: CC50 (HepDE19) value / EC50 (HepG2.2.15) value
Source text: (§1) HepG2.2.15 and HepDE19 are stably-transfected cell lines containing the HBV genome. Both cell lines are derived from the hepatoblastoma cell line Hep G2 (American Type Culture Collection, ATCC® HB-8065™) by the published procedures described in references: MA Selles et al. Proc. Natl. Acad. Sci. USA 1987, 84, 1005-1009 and H Guo et al. Journal of Virology 2007, 81, 12472-12484, respectively. Both cell lines were maintained in Dulbecco's modified Eagle's medium (DMEM)-F12 medium supplemented with 10% fetal bovine serum, 100 U/mL penicillin, 100 μg/mL streptomycin, and 0.5 mg/mL of G418.
(§2) HepDE19 cells were seeded into 96-well plates (5×10^3 cells per well) and treated with compounds for EC50 determination. Five days after treatment, cell viability was measured by addition of 20 μL of CCK-8 reagent. Two hours after incubation at 37° C., the absorbance at wavelengths of 450 nm and 630 nm (OD450 and OD630) was recorded by a plate reader. The concentration results in the death of 50% of the host cells (CC50) of each compound were determined.
(§3) The relative effectiveness of the compound in inhibiting viral replication compared to inducing cell death was defined as the selectivity index (CC50 value/EC50 value). Based on CC50 and EC50 data, selectivity indexes were determined.

[2] = as above; assay type: cell-based; settings: human, HepDE19 cells; CCK-8 cell viability; five days after treatment
Source text: as §1, §2, §3

[3] = Human microsomal metabolic stability; assay type: in vitro ADME; settings: human microsomes 0.5 mg/mL, 1 μM test compound, NADPH, 37° C., pH 7.4, 0-30 minutes
In short: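 1 μM compound with 0.5 mg/mL human liver microsomal protein in 100 mM phosphate pH 7.4 at 37° C, started with 1 mM NADPH or a NADPH-regenerating system. Sampled at 0–30 min, quenched in cold methanol with tolbutamide internal standard; remaining parent quantified by LC-MS/MS.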

[4] = Lysa solubility; assay type: physicochemical; settings: 0.05 M phosphate buffer (pH 6.5); for solubility thermodynamic: phosphate buffer, pH 6.5, aqueous buffer, thermodynamic from solid
In short: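 Duplicate samples dried from 10 mM DMSO stocks, taken up in 0.05 M phosphate buffer pH 6.5, stirred 1 h, shaken 2 h and left overnight. Filtrate and 1/10 dilution quantified by direct UV or HPLC-UV, in μg/mL; above 80% of the calculated maximum, reported as greater than that value.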

[5] = system: HBV; test: Anti-HBV activity in vitro, HepG2.2.15 cells, extracellular HBV DNA by qPCR; assay type: cell-based; settings: Hepatitis B virus, HepG2.2.15, 120 h, HepG2.2.15 cells; HBV replication inhibited by 50%, extracellular HBV DNA by qPCR; five days after compound treatment; read-out: EC50
In short: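 Extracellular HBV DNA in culture supernatant was measured by qPCR after nucleic acid extraction. The supernatant came from constitutively replicating HepG2.2.15 cells exposed for five days to half-log-diluted compounds, with DMSO at 0.5% final. Cells had been plated overnight at 37 °C beforehand.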

Row | Compound | Selectivity index (CC50/EC50) [1] | CC50 at 5 days [2] [µM] | Human Microsomal Clearance [3] [mL/min/kg] | solubility thermodynamic [4] [µg/mL] | pEC50 [5] | Lysa [4] [µg/mL]
1 | COC(=O)C1=C(CN2CCN3C(=O)N(C4CCC(C(=O)O)C4)C[C@@H]3C2)NC(c2nccs2)=N[C@H]1c1ccc(F)cc1Cl (mixture of isomers) [Example 61, (R)-6-[(S)-2-((1R,3S)-3-Carboxy-cyclopentyl)-3-oxo-hexahydro-imidazo[1,5-a]pyrazin-7-ylmethyl]-4-(2-chloro-4-fluoro-phenyl)-2-thiazol-2-yl-1,4-dihydro-pyrimidine-5-carboxylic acid methyl ester and (R)-6-[(S)-2-((1S,3R)-3-Carboxy-cyclopentyl)-3-oxo-hexahydro-imidazo[1,5-a]pyrazin-7-ylmethyl]-4-(2-chloro-4-fluoro-phenyl)-2-thiazol-2-yl-1,4-dihydro-pyrimidine-5-carboxylic acid methyl ester] | >8333 | > 100 | 0.4 | > 742 | 7.92 | 
2 | CCOC(=O)C1=C(CN2CCN3C(=O)CC[C@@H]3[C@H]2C(=O)O)NC(c2nccs2)=N[C@H]1c1cccc(F)c1Cl (racemic) [Example 99, 2-[[(4R)-4-(2-chloro-3-fluoro-phenyl)-5-ethoxycarbonyl-2-thiazol-2-yl-1,4-dihydropyrimidin-6-yl]methyl]-6-oxo-1,3,4,7,8,8a-hexahydropyrrolo[1,2-a]pyrazine-1-carboxylic acid] | >7142 | > 100 | 6.1 | > 710 | 7.85 | 
3 | COC(=O)C1=C(CN2CCN3C(=O)N(C4CC4)C[C@@H]3[C@H]2C(=O)O)NC(c2nccs2)=N[C@H]1c1ccc(F)c(F)c1C (single isomer, unassigned) [Example 83B] | >11111 | > 100 | 2.9 |  | 8.05 | 780
4 | CCOC(=O)C1=C(CN2CCN3C(=O)N(C(C)C)C[C@@H]3[C@H]2C(=O)O)NC(c2nccs2)=N[C@H]1c1cccc(F)c1Cl (single isomer, unassigned) [Example 84B] | >100000 | > 100 | 3.6 |  | 9.00 | 770
5 | CCOC(=O)C1=C(CN2CCN3C(=O)OC[C@@H]3[C@H]2C(=O)O)NC(c2nccs2)=N[C@H]1c1cccc(F)c1Cl (single isomer, unassigned) [Example 102B] | >7142 | > 100 | 6.2 | > 665 | 7.85 | 
6 | COC(=O)C1=C(CN2CCN3C(=O)N(CC4(C(=O)O)CC4)C[C@@H]3C2)NC(c2nccs2)=N[C@H]1c1ccc(F)cc1Cl [Example 35, 1-[[(8aS)-7-[[(4R)-4-(2-chloro-4-fluoro-phenyl)-5-methoxycarbonyl-2-thiazol-2-yl-1,4-dihydropyrimidin-6-yl]methyl]-3-oxo-5,6,8,8a-tetrahydro-1H-imidazo[1,5-a]pyrazin-2-yl]methyl]cyclopropanecarboxylic acid] | >9259 | > 100 | 0.3 | > 754 | 7.96 | 
7 | COC(=O)C1=C(CN2CCN3C(=O)N(CC(C)(C)C(=O)O)C[C@@H]3C2)NC(c2nccs2)=N[C@H]1c1cccc(F)c1Cl [Example 41, 3-[(8aS)-7-[[(4R)-4-(2-chloro-3-fluoro-phenyl)-5-methoxycarbonyl-2-thiazol-2-yl-1,4-dihydropyrimidin-6-yl]methyl]-3-oxo-5,6,8,8a-tetrahydro-1H-imidazo[1,5-a]pyrazin-2-yl]-2,2-dimethyl-propanoic acid] | >7194 | > 100 | 2.0 | > 804 | 7.85 | 
8 | COC(=O)C1=C(CN2CCN3C(=O)N(CC(C)(C)C(=O)O)C[C@@H]3C2)NC(c2nccs2)=N[C@H]1c1cccc(F)c1C [Example 44, 3-[(8aS)-7-[[(4S)-4-(3-fluoro-2-methyl-phenyl)-5-methoxycarbonyl-2-thiazol-2-yl-1,4-dihydropyrimidin-6-yl]methyl]-3-oxo-5,6,8,8a-tetrahydro-1H-imidazo[1,5-a]pyrazin-2-yl]-2,2-dimethyl-propanoic acid] | >6369 | > 100 | 1.7 | 207 (≈ 354 µM) | 7.80 | 
9 | COC(=O)C1=C(CN2CCN3C(=O)N(Cc4ccc(C(=O)O)cc4)CC3C2)NC(c2nccs2)=N[C@H]1c1ccc(F)cc1Cl (stereo partly drawn) [Example 65, (R)-6-[2-(4-Carboxy-benzyl)-3-oxo-hexahydro-imidazo[1,5-a]pyrazin-7-ylmethyl]-4-(2-chloro-4-fluoro-phenyl)-2-thiazol-2-yl-1,4-dihydro-pyrimidine-5-carboxylic acid methyl ester] | >11111 | > 100 | 6.2 | 194 (≈ 304 µM) | 8.05 | 
10 | CCOC(=O)C1=C(CN2CCN3C(=O)N(Cc4ccc(C(=O)O)cc4)CC3C2)NC(c2nccs2)=N[C@H]1c1cccc(F)c1Cl (stereo partly drawn) [Example 66, (R)-6-[2-(4-Carboxy-benzyl)-3-oxo-hexahydro-imidazo[1,5-a]pyrazin-7-ylmethyl]-4-(2-chloro-3-fluoro-phenyl)-2-thiazol-2-yl-1,4-dihydro-pyrimidine-5-carboxylic acid ethyl ester] | 15000 | 60 | 7.1 |  | 8.40 | 
11 | COC(=O)C1=C(CN2CCN3C(=O)N(C4CC5(CC(C(=O)O)C5)C4)C[C@@H]3C2)NC(c2nccs2)=N[C@H]1c1ccc(F)cc1Cl (stereo partly drawn) [Example 79, 2-[(8aS)-7-[[(4R)-4-(2-chloro-4-fluoro-phenyl)-5-methoxycarbonyl-2-thiazol-2-yl-1,4-dihydropyrimidin-6-yl]methyl]-3-oxo-5,6,8,8a-tetrahydro-1H-imidazo[1,5-a]pyrazin-2-yl]spiro[3.3]heptane-6-carboxylic acid] | 6500 | 52 | 3.6 | 180 (≈ 280 µM) | 8.10 | 
12 | CCOC(=O)C1=C(CN2CCN3C(=O)N(CC4CC(C(=O)O)C4)C[C@@H]3C2)NC(c2nccs2)=N[C@H]1c1cccc(F)c1Cl (stereo partly drawn) [Example 81, 3-[[(8aS)-7-[[(4R)-4-(2-chloro-3-fluoro-phenyl)-5-ethoxycarbonyl-2-thiazol-2-yl-1,4-dihydropyrimidin-6-yl]methyl]-3-oxo-5,6,8,8a-tetrahydro-1H-imidazo[1,5-a]pyrazin-2-yl]methyl]cyclobutanecarboxylic acid] | 8500 | 85 | 0.1 | 279 (≈ 442 µM) | 8.00 | 

— patent US9233978B2, “6-fused heteroaryldihydropyrimidines for the treatment and prophylaxis of hepatitis B virus infection” (Hoffmann-La Roche Inc., priority 2014, dated 2016)
